Experimental data from ChEMBL document CHEMBL5385849, “Discovery of 1-hydroxy-2-methylquinolin-4(1H)-one derivatives as new cytochrome bd oxidase inhibitors for tuberculosis therapy” (Eur J Med Chem, 2023).
In brackets after ≈: the same amount, converted by molar mass. Activity calls are given as the source filed them. The rule behind the calls is not given here.

How the values were obtained:
[1] = tested on: Mycolicibacterium smegmatis; experiment: Antimycobacterial activity against wild type Mycobacterium smegmatis MC2155 assessed as reduction in bacterial growth incubated for 24 hrs by resazurin dye based analysis; assay type: functional
[2] = tested on: Mycolicibacterium smegmatis; experiment: Antimycobacterial activity against Mycobacterium smegmatis harboring deltaqcrCAB mutant assessed as reduction in bacterial growth incubated for 24 hrs by resazurin dye based analysis; assay type: functional
[3] = Binding affinity to C-terminal his-tagged Mycobacterium tuberculosis Cytochrome bd oxidase assessed as dissociation constant incubated for 5 to 10 mins by MST assay
[4] = tested on: Mycolicibacterium smegmatis; experiment: Antimycobacterial activity against Mycobacterium smegmatis harboring deltaqcrCAB mutant assessed as reduction in bacterial growth incubated for 2 days by resazurin dye based analysis; assay type: functional; details: 48 h, time 2 day
[5] = tested on: Mycolicibacterium smegmatis; experiment: Inhibition of C-terminal his-tagged wild type Mycobacterium smegmatis MC2155 cytochrome bd oxidase assessed as reduction in oxygen consumption at 25 uM measured upto 4 days in presence of 6-chloro-2-ethyl-N-(4-(4-(4-(trifluoromethoxy)phenyl)piperidin-1-yl)benzyl)imidazo[1,2-a]pyridine-3-carboxamide by Methylene blue dye based assay; details: time <= 4.0 day
[6] = tested on: Mycolicibacterium smegmatis; experiment: Inhibition of C-terminal his-tagged Mycobacterium smegmatis harboring […] mutant inverted-membrane vesicle cytochrome bd oxidase assessed as reduction in oxygen consumption rate at 10 uM measured upto 4 days by Methylene blue dye based assay; assay type: cell membranes; details: time <= 4.0 day
[7] = tested on: Mycolicibacterium smegmatis; experiment: Inhibition of C-terminal his-tagged Mycobacterium smegmatis harboring deltaqcrCAB mutant inverted-membrane vesicle cytochrome bd oxidase assessed as reduction in oxygen consumption rate at 10 uM measured upto 4 days by Methylene blue dye based assay; assay type: cell membranes; details: time <= 4.0 day
[8] = tested on: Mycolicibacterium smegmatis; experiment: Inhibition of C-terminal his-tagged wild type Mycobacterium smegmatis inverted-membrane vesicle cytochrome bd oxidase assessed as reduction in oxygen consumption rate at 10 uM measured upto 4 days by Methylene blue dye based assay; assay type: cell membranes; details: time <= 4.0 day
[9] = tested on: Mycolicibacterium smegmatis; experiment: Inhibition of C-terminal his-tagged wild type Mycobacterium smegmatis MC2155 cytochrome bd oxidase assessed as reduction in oxygen consumption at 25 uM measured upto 4 days by Methylene blue dye based assay; details: time <= 4.0 day
[10] = tested on: Mycolicibacterium smegmatis; experiment: Inhibition of C-terminal his-tagged wild type Mycobacterium smegmatis MC2155 cytochrome bd oxidase assessed as reduction in oxygen consumption at 5 uM measured upto 4 days in presence of Aurachin D by Methylene blue dye based assay; details: time <= 4.0 day
[11] = tested on: Mycolicibacterium smegmatis; experiment: Inhibition of C-terminal his-tagged wild type Mycobacterium smegmatis MC2155 cytochrome bd oxidase assessed as reduction in oxygen consumption at 5 uM measured upto 4 days by Methylene blue dye based assay; details: time <= 4.0 day

Cc1ccccc1Cc1c(C)n(O)c2ccccc2c1=O
MIC [1]: > 400 µM | MIC [2]: 25 µM (≈ 6.98 µg/mL)

Cc1c(Cc2ccc(OC(F)(F)F)cc2)c(=O)c2ccccc2n1O
Kd [3]: 4.17 µM | MIC [4]: 6.25 µM (≈ 2.18 µg/mL) | inhibition [5]: Active | inhibition [6]: inactive | MIC [1]: > 400 µM | MIC [2]: 6.25 µM (≈ 2.18 µg/mL) | inhibition [7]: 86% | inhibition [8]: 74% | inhibition [9]: inactive

Cc1c(Cc2ccccc2Br)c(=O)c2ccccc2n1O
MIC [1]: > 400 µM | MIC [2]: 50 µM (≈ 17.2 µg/mL)

COc1ccccc1Cc1c(C)n(O)c2ccccc2c1=O
MIC [1]: > 400 µM | MIC [2]: 25 µM (≈ 7.38 µg/mL)

CC(C)=CCC/C(C)=C/CC/C(C)=C/Cc1c(C)[nH]c2ccccc2c1=O [AURACHIN D]
MIC [2]: 6.25 µM (≈ 2.27 µg/mL) | inhibition [9]: inactive

CCc1nc2ccc(Cl)cn2c1C(=O)NCc1ccc(N2CCC(c3ccc(OC(F)(F)F)cc3)CC2)cc1
inhibition [10]: Active | inhibition [11]: inactive

Cc1c(Cc2ccc(N3CCN(c4ccc(OC(F)(F)F)cc4)CC3)cc2)c(=O)c2ccccc2n1O
MIC [1]: > 400 µM | MIC [2]: 100 µM (≈ 51 µg/mL)

Cc1c(Cc2ccc(Cl)cc2)c(=O)c2ccccc2n1O
MIC [1]: > 400 µM | MIC [2]: 6.25 µM (≈ 1.87 µg/mL)

Cc1c(Cc2ccccc2C(F)(F)F)c(=O)c2ccccc2n1O
MIC [1]: > 400 µM | MIC [2]: 50 µM (≈ 16.7 µg/mL)

Cc1c(Cc2ccccc2Cl)c(=O)c2ccccc2n1O
MIC [1]: > 400 µM | MIC [2]: 50 µM (≈ 15 µg/mL)

Cc1c(Cc2ccccc2OC(F)(F)F)c(=O)c2ccccc2n1O
Kd [3]: 165 µM | MIC [4]: 6.25 µM (≈ 2.18 µg/mL) | MIC [1]: > 400 µM | MIC [2]: 3.1 µM (≈ 1.08 µg/mL)

CCc1ccccc1Cc1c(C)n(O)c2ccccc2c1=O
MIC [1]: > 400 µM | MIC [2]: 50 µM (≈ 14.7 µg/mL)

Cc1c(Cc2ccc(N3CCN(C)CC3)cc2)c(=O)c2ccccc2n1O
MIC [1]: > 400 µM | MIC [2]: > 400 µM

Cc1c(-c2cnn(Cc3ccc(OC(F)(F)F)cc3)c2)c(=O)c2ccccc2n1O
MIC [1]: > 400 µM | MIC [2]: > 400 µM

Cc1[nH]c2ccccc2c(=O)c1Cc1ccc(OC(F)(F)F)cc1
MIC [1]: > 400 µM | MIC [2]: 50 µM (≈ 16.7 µg/mL)

CC(C)(C)c1cc(C(C)(C)C)c(NC(=O)c2c[nH]c3ccccc3c2=O)cc1O [IVACAFTOR]
Kd [3]: 40 µM | MIC [2]: 51 µM (≈ 20 µg/mL)

Cc1c(Cc2ccccc2F)c(=O)c2ccccc2n1O
MIC [1]: > 400 µM | MIC [2]: 50 µM (≈ 14.2 µg/mL)

Cc1[nH]c2ccccc2c(=O)c1-c1cnn(Cc2ccc(OC(F)(F)F)cc2)c1
MIC [1]: > 400 µM | MIC [2]: > 400 µM

Cc1c(Cc2ccccc2)c(=O)c2ccccc2n1O
MIC [1]: > 400 µM | MIC [2]: 50 µM (≈ 13.3 µg/mL)

Cc1c(Cc2ccc(Br)cc2)c(=O)c2ccccc2n1O
MIC [1]: > 400 µM | MIC [2]: 6.25 µM (≈ 2.15 µg/mL)

CN(C(=O)c1c(O)c2ccccc2n(C)c1=O)c1ccccc1 [ROQUINIMEX]
Kd [3]: 13 µM | MIC [2]: 260 µM (≈ 80.2 µg/mL)

Cc1c(Cc2ccc(I)cc2)c(=O)c2ccccc2n1O
MIC [1]: > 400 µM | MIC [2]: 12.5 µM (≈ 4.89 µg/mL)
